Results as given in ChEMBL document CHEMBL1149552, “Praziquantel derivatives I: Modification of the aromatic ring” (2007).
Values after ≈ are worked out from the molar mass of the structure shown.

Columns and labels:
Assay type in all cases: functional
Schistosoma mansoni [1] = experiment: Antischistosomal activity against Schistosoma mansoni assessed as shcistomes paralysis relative to Praziquantel
Schistosoma mansoni [2] = experiment: Antischistosomal activity against Schistosoma mansoni assessed as 100% killing of shcistomes relative to Praziquantel
Schistosoma mansoni [3] = experiment: Antischistosomal activity against Schistosoma mansoni assessed as 100% killing of schistosomes
Schistosoma mansoni [4] = experiment: Antischistosomal activity against Schistosoma mansoni assessed as complete spastic paralysis

Compound	Activity (Schistosoma mansoni [1]) [%]	Activity (Schistosoma mansoni [2]) [%]	MLC (Schistosoma mansoni [3]) [µM]	Activity (Schistosoma mansoni [4]) [µM]
CC(=O)Nc1ccc2c(c1)C1CN(C(=O)C3CCCCC3)CC(=O)N1CC2 (stereo unspecified)	<0.3	<1	>300	>300
Nc1ccc2c(c1)C1CN(C(=O)C3CCCCC3)CC(=O)N1CC2 (stereo unspecified)	10	10.7	28 (≈ 9.17 µg/mL)	10
Nc1cccc(C(=O)N2CC(=O)N3CCc4ccccc4C3C2)c1 (stereo unspecified)	14.3	25	12 (≈ 3.86 µg/mL)	7
O=C(C1CCCCC1)N1CC(=O)N2CCc3ccccc3C2C1 (stereo unspecified) [PRAZIQUANTEL]			3 (≈ 0.937 µg/mL)	1
O=C(C1CCC(O)CC1)N1CC(=O)N2CCc3ccccc3C2C1 (stereo unspecified)	1.3	1.5	200 (≈ 65.7 µg/mL)	75
Nc1ccc(C(=O)N2CC(=O)N3CCc4ccccc4C3C2)cc1 (stereo unspecified)	14.3	16.6	18 (≈ 5.78 µg/mL)	7
O=C(C1CCCCC1)N1CC(=O)N2CCc3ccc([N+](=O)[O-])cc3C2C1 (stereo unspecified)	<0.3	<1	>300	>300
